Tests used:
human CB2 receptor = molecular target: T1, human CB2 receptor (Homo sapiens, UniProt P34972); test: Human CB2 receptor binding inhibition ([3H]CP55940, membranes of CB2R-expressing CHO cells)
T1 construct: The coding region of human CB2 receptor (CB2R) cDNA (Munro etc, Nature, 1993, 365, 61-65) was inserted into the mammalian expression vector; expressed in transfected cells

human CB1 receptor = molecular target: T2, human CB1 receptor (Homo sapiens, UniProt P21554); test: Human CB1 receptor binding assay ([3H]CP55940, membranes of CB1R-expressing CHO cells); details: [3H]CP55940 0.5 nM
T2 construct: expressed in transfected cells
T2 sequence (P21554 whole entry): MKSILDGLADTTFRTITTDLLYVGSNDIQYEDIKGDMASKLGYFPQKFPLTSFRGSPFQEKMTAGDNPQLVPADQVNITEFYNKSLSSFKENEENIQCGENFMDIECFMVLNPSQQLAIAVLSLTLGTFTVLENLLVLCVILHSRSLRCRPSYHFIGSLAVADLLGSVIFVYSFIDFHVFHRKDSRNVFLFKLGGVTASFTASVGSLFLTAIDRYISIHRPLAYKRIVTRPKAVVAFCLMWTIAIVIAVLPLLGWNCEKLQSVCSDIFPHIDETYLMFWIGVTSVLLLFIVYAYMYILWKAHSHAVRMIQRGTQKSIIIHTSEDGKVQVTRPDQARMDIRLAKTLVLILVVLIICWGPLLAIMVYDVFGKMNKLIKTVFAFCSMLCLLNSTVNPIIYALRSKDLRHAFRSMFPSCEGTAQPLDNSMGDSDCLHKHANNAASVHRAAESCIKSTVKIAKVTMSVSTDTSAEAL

T1 sequence (P34972 whole entry): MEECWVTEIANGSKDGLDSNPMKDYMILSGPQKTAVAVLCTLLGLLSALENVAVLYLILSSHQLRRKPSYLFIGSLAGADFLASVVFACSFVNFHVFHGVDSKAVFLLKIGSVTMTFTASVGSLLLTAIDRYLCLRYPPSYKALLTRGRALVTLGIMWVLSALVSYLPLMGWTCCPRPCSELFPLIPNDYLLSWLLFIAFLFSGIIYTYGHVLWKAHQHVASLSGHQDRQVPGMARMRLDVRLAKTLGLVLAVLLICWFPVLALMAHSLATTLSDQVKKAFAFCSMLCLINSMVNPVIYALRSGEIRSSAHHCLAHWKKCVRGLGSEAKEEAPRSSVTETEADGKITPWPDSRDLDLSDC

melting point [°C] | Compound | Ki (human CB2 receptor) [nM] | Ki (human CB1 receptor) [nM]
245 to 247 | Cc1ccc(Oc2nc3ccccc3o2)c(=S)n1C | – | –
117 | CCn1c(C)c(C)cc(C(=O)NCc2ccccc2)c1=O | – | –
129 to 130 | CCCCn1c(C)c(C)cc(NC(=O)c2ccc(F)cc2)c1=O | – | –

More lines, now with the values behind:

Compound | melting point [°C] | Ki (human CB2 receptor) [nM] | Ki (human CB1 receptor) [nM]
CCCCn1c2c(cc(C(=O)NCCc3ccc(N)cc3)c1=O)CCCC2 [Example 4-003] | – | 44 | 680
CCCCn1c(C)c(C)cc(NC(=O)c2ccccc2Cl)c1=O [Example 5-005] | – | – | 391
CCCCn1c(C)c(C)cc(NC(=O)c2ccccc2C)c1=O [Example 5-006] | – | – | 390

Source: patent US8088924B2, “Pyridone derivatives having a binding activity to the cannabinoid type 2 receptor” (Shionogi & Co., Ltd., priority 2000, dated 2012)
